Columns and labels:
[1] = Metabolite identification and profiling in rat hepatocytes; assay type: in vitro ADME; details: SH-337, rat hepatocytes, 60 min incubation
Description: (§1) SH-337 was incubated with rat or human hepatocytes at a concentration of 1.0 × 10^6 cells/mL for 60 min or 120 min (rat 60 min, human 120 min) at 37°C in a CO2 incubator. The samples were precipitated with acetonitrile at 1 : 2 and further centrifuged; the supernatants were dried with a stream of N2 gas. The residues were reconstituted with 300 μL of 10% acetonitrile/H2O (0.1% TFA) and analyzed by LC-MS/MS. The assays were pursued under the conditions provided in Supplementary Tables S5–S8.

[2] = Metabolite identification and profiling in human liver microsomes; assay type: in vitro ADME; details: SH-337 10 µM, 60 min incubation
Description: Liver microsomes (1 mg protein/mL) were suspended in phosphate buffer (50 mM, pH 7.4) containing MgCl2 (6 mM). […] The reactions were initiated at 37°C by the addition of 1 mM NADPH and terminated at 30 min or 60 min (30 min for rat; 60 min for human). The samples were precipitated with acetonitrile at 1 : 2 and further centrifuged; the supernatants were dried with a stream of N2 gas. The residues were reconstituted with 300 μL of 10% acetonitrile/H2O (0.1% TFA) and analyzed by LC-MS/MS. The assays were pursued under the conditions provided in Supplementary Tables S4, S6, S7, and S8.

[3] = Acute (single-dose) toxicity test; assay type: in vivo; details: SD rats, single dose of 1000 mg/kg, i.g.
Description: For acute toxicity test: 12 SPF SD rats were randomly divided into three groups and received a single dose of SH-337 (1000 mg/kg, i.g.), and the animal tolerance was recorded within 2 hours. For two-week repeat-dose toxicity test: 20 SPF SD rats were randomly divided into two groups and received SH-337 (100, 200 mg/kg, i.g.) once daily for 14 days. SH-337 was dissolved in 0.5% CMC-Na. The body weight of the rats was recorded every 7 days. During the experiment, clinical parameters included apparent changes in the mental state, skin or fur, behavior, genitals, mucous membranes, respiration, stool consistency, glandular organ secretions, mortality, or other toxic results that were recorded. In addition, animal bodyweight and food intake were assessed once weekly over the study period. At the end of the experiment, the rats were sacrificed, and the serum hematological parameters and serum biochemistry parameters were recorded.

[4] = Metabolite identification and profiling in human hepatocytes; assay type: in vitro ADME; details: SH-337, human hepatocytes, 120 min incubation
Description: as §1

[5] = log D7.4 measurement (1-octanol/PBS pH 7.4); assay type: physicochemical
Description: Procedure for pKa and log D7.4 measurements. The pKa was determined using pH-metric Method from DMSO Stock Solution. Procedure for Log D determinations: 15 µL of stock solutions of test compounds and control compound was placed in order into their proper 96-well rack. 500 µL of PBS saturated 1-octanol was added into each vial of the cap-less Log D plate followed by the addition of 500 µL of 1-octanol saturated PBS (pH 7.4). One stir stick was added to each vial and a molded PTFE/Silicone plug was used to seal each vial. Then the Log D plate was transferred to the Eppendorf Thermomixer Comfort plate shaker and shaken at 25°C at 1,100 RPM for 1 hour. After completion of 1 hour, plugs were removed and the stir sticks were removed using a big magnet. The samples were then centrifuged at 25°C at 20,000 g for 20 minutes to separate the phases, and pipette and syringe were used to remove the upper (1-octanol) and lower (buffer) phases to the empty tubes, respectively. Aliquots of 5 µL were taken from upper phases followed by addition of 495 µL of a mixture of H2O and acetonitrile (1:1 in v/v). Vortex for 1 minute, and then aliquots of 50 µL were taken from the diluent followed by addition of 450 µL of a mixture of H2O and acetonitrile (1:1 in v/v). And aliquots of 50 µL were taken from lower phases followed by addition of 450 µL of a mixture of H2O and acetonitrile (1:1 in v/v). 200 μL of diluent was transferred to a new 96-well plate for LC-MS/MS analysis. The dilution factor was changed according to the Log D value and the LC-MS signal response. The concentrations of test compound and control compound in 1-octanol/buffer solution were evaluated by LC-MS/MS. The Log D values of the test compounds and control compound were calculated as follows: […]

## CNCc1cc(-c2ccc(OCC3CC3)cc2F)n(S(=O)(=O)c2cccnc2)c1.Cl.Cl [SH-337, 1-(5-(4-(cyclopropylmethoxy)-2-fluorophenyl)-1-(pyridin-3-ylsulfonyl)-1H-pyrrol-3-yl)-N-methylmethanamine dihydrochloride]
[1]
  Relative peak area, RHeps: 28.2%
[2]
  Relative peak area, HLMs: 68.9%
[3]
  animal death: no animal death was observed
  single-dose toxicity (tolerance): well tolerated
[4]
  Relative peak area, Hheps: 76.5%
[5]; 1-octanol/PBS, pH 7.4, pH 7.4
  logD at 1 h: 1.3
[5]; pH 7.4
  log D7.4: 1.28

Reference: article PMC9343080, “Distribution- and Metabolism-Based Drug Discovery: A Potassium-Competitive Acid Blocker as a Proof of Concept” (Research, 2022)
